Results reported in patent publication US20240374563A1, “ANTICHOLINERGIC COMPOUNDS FOR USE IN TREATING NEUROMUSCULAR DISORDERS” (UNIVERSITY OF MONTRÉAL, priority 2022, published 2024).

Key:
PSC purinergic receptors = assay: Calcium imaging of PSCs: Ca2+ responses to local ATP application; format: in vivo, SOD1^G37R mice
SOD1^G37R mice [1] = assay: Rotarod acceleration protocol; format: in vivo, mouse
Experimental: Third, the motor performance, balance and coordination, were measured using a standard acceleration protocol on the Rotarod (FIG. 8A), which is known to reveal ALS motor deficits as disease progresses.
Motor coordination, strength and balance were assessed using a rotarod (TSE Rotarod, TSE Systems Gmbh, Germany). Animals were placed onto a rotating wheel at a starting speed of 4 rpm, increasing to 40 rpm in 300 seconds. Mice had two attempts per session to remain on the rotarod during the acceleration protocol, and the longest latency to fall was counted.

SOD1^G37R mice [2] = assay: Body weight loss; format: in vivo, mouse; conditions: at P520; treatment from disease onset; N=21
Text: To this end, we monitored the changes in the body weight of the animals, a metric that is directly related to the progression of the disease and survival whereby animals present an important gradual body weight loss after symptoms onset.
(§1) The pre-clinial trial design was made according to guidelines for preclinical animal research in ALS/MND [35]. Male mice from the SOD1^G37R background and their WT littermates were included in the preclinical study. Mice were randomly assigned to the experimental or the placebo group. Treatment, behavior monitoring, experiments and results analysis were done blindly. Standard ALS behavioral measurements were performed biweekly to measure disease progression in the various study groups. This includes rotarod test. grip strength measurements, weight measurements and tail suspension test to assess hindlimb extension reflex.

SOD1^G37R mice [3] = assay: EDL contractile force with muscle force transducer (force-frequency curve, contractile capacity ratio); format: in vivo, mouse
Text: To investigate this, we used a musde force transducer to measure the force generated by EDL muscles elicited by stimulation of the motor nerve and/or by the direct muscle stimulation (FIG. 5A). With this system, stimulation of the motor nerve at various frequencies elicits muscle contraction through NMJ efficacy, reflecting the strength of contractile fibers associated with innervated NMJs only. Muscle stimulation, on the contrary, depolarizes all muscle fibers and reflect maximal twitch force of all the muscle, independent of the innervation status.
These values represent respectively 55% and 30% of the WT mean twitch force value (FIG. 5B; Dari N=8, Placebo N=8; p<0.01, Repeated Two-way ANOVA). Contractile forces generated differed between the two groups from 70 Hz to 300 Hz (FIG. 5B; Dari N=8, Placebo N=8; p<0.05, Two-way ANOVA, Bonferroni post hoc test). […] This is indicative of the preservation of the fast-twitch properties of the EDL (FIG. 5C; Dari N=8, Placebo N=8; p<0.05 et p<0.01, unpaired t-tests at each frequency).
We next determined the proportion of the muscle capacity that is used by the neuromuscular system upon nerve stimulation. This was expressed as the contractile capacity ratio calculated as follow: […]
The EDL and SOL nerve-muscle preparations were attached vertically to a fixed force transducer (model 402 A-500 mN, Aurora Scientific Inc.) using surgical threads. The preparations were attached at the tendons level to the transducer at one extremity and to an adaptable hook at the opposite extremity. A platinum reference electrode was then juxtaposed ot the muscle, positioned near an extremity of the muscle, close to a tendon. To stimulate the muscle, a second platinum electrode was juxtaposed at the other extremity of the muscle. To elicit muscle contractions from motor nerve and neuromuscular activity, the tibial nerve (SOL) or the deep peroneal nerve (EDL) motor nerve was suctioned into an electrode made of PE tubing and filled with Ringer's solution. […] Neuromuscular contractile basal force responses were elicited by a single supra-maximal square-wave of 500 mV, 0.1 ms pulse imposed on the motor nerve. Muscle contractile basal force responses were elicited by square pulse stimulation of 15 V, 1 ms. Optimal muscle length was determined by gradually stretching the muscle until maximal contractile force output was attained.
Force-frequency curve: Nerve and muscle stimulations were performed to generate a standard force-frequency curve. Alternate nerve and muscle stimulations were performed at various frequencies (5 Hz, 10 Hz, 20 Hz, 30 Hz, 40 Hz, 50 Hz, 60 Hz, 70 Hz, 80 Hz, 90 Hz, 100 Hz, 120 Hz, 140 Hz, 160 Hz, 180 Hz, 200 Hz, 250 Hz and 300 Hz) and the force generated monitored. There was a 2-minute rest period between each stimulation.

SOD1^G37R mice [4] = assay: Survival cohort; conditions: continuous treatment from disease onset (P450) until end stage; N=10
[5] = tested on: PSC muscarinic receptors (mAChRs); conditions: SOD1 mice, 15 mg/kg for 30 days; SOL muscle
Text: Mice were then sacrificed, and muscles dissected with their innervation and placed in a physiological recording chamber. We performed Ca^2+ imaging on the SOL muscle to evaluate PSCs synaptic detection of neurotransmission elicited by motor nerve stimulation (50 Hz-5 sec) or local applications of the mAChRs agonist muscarine for the treated and the placebo groups.
Preparations of SOL muscles and their innervation were dissected and pinned in a Sylgard-coated experimental chamber filled with an oxygenated Ree's solution (in mM, all Sigma), as follows: 110 NaCl, 5 KCl, 1 MgCl2, 25 NaHCO3, 2 CaCl2, 11 glucose, 0.3 glutamic acid, 0.4 glutamine, 5 BES (N,N-Bis(2-hydroxyethyl)-2-aminoethanesulfonic acid sodium salt), 0.036 choline chloride, and 4.34×10^−7 cocarboxylase. Nerve-muscle preparations were incubated for 90 min (2×45 min) in a preoxygenated saline solution containing 10 μM fluo-4AM (Invitrogen) and 0.02% pluronic acid (Invitrogen). After the loading, nerve muscle preparations were constantly perfused with a warm (26-28° C.) oxygenated Ree's solution (95% O2, 5% CO2). Basel level of fluorescence was always set within the same range of arbitrary units, using the same software and hardware settings. Changes in fluorescence were measured over PSC soma and expressed as follows: % ΔF/F=(F-Frest)/Frest×100. Experiments were discarded when focus drift occurred. […]

SOD1^G37R mice [6] = assay: Grip strength; format: in vivo, mouse; conditions: from P490 until the end of the trial; treatment from disease onset; N=19
Text: Mice of the darifenacin and placebo groups began the trial with a similar grip strength force.
as §1

## NC(=O)C(c1ccccc1)(c1ccccc1)[C@@H]1CCN(CCc2ccc3c(c2)CCO3)C1 [darifenacin]
PSC purinergic receptors; SOD1G37R mice, 10 mg/kg orally for 5 days
  PSC Ca2+ response to ATP, Darifenacin vs DMSO vs non-treated wild type: no difference
PSC purinergic receptors; SOD1 mice, 10 or 15 mg/kg for 30 days
  effect on purinergic signaling of PSCs (Ca2+ responses to local ATP): no effect
SOD1^G37R mice [1]; at P520 and P525, treatment from disease onset, N=22
  Rotarod latency to fall vs placebo: significantly higher score
SOD1^G37R mice [1]; late symptomatic stage, data not shown
  share of group still able to stand for several seconds on the rotating rod: more than half
SOD1^G37R mice [2]
  body weight loss: 20.0±1.9%
SOD1^G37R mice [3]; 5 Hz-300 Hz, pre-onset treatment P400 until P520, N=4
  peak EDL muscle force, nerve or muscle stimulation, vs placebo: no difference
SOD1^G37R mice [3]; force-frequency protocol 5 Hz-300 Hz, treatment from disease onset, N=8
  EDL twitch force, nerve stimulation: 138.0±9.1 mN
SOD1^G37R mice [3]; nerve stimulation, treatment from disease onset
  EDL twitch force as % of the WT mean twitch force value: 55%
SOD1^G37R mice [3]; pre-onset treatment from P400
  animals discarded for early onset of forelimb paralysis, final stage at P490: two
SOD1^G37R mice [4]
  median lifespan: 551 days
[5]
  PSCs muscarinic activation: greatly abolished
SOD1^G37R mice [6]
  grip strength vs placebo: performed better
